Experimental data: ChEMBL document CHEMBL3351396, “Synthesis of the novel elemonic acid derivatives as Pin1 inhibitors” (Bioorg Med Chem Lett, 2014)

Target: Peptidyl-prolyl cis-trans isomerase NIMA-interacting 1 (Homo sapiens, UniProt Q13526)
Test: Inhibition of Pin1 (unknown origin) using Suc-Ala-Glu-Pro-Phe-4-nitroanilide as substrate after 30 mins by protease-coupled assay

Peptidyl-prolyl cis-trans isomerase NIMA-interacting 1, sequence (Q13526 whole entry): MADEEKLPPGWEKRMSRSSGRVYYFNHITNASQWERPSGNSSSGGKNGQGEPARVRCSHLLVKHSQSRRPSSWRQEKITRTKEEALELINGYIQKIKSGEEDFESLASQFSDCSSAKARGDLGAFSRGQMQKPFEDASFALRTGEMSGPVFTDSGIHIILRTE

SMILES	IC50 [µM]
CC1(C)C(=O)CC[C@]2(C)C3=C(CC[C@@H]12)[C@@]1(C)CC[C@@H]([C@H](CCC(=O)O)C(=O)OCc2ccccc2)[C@]1(C)CC3=O	1.47
CC1(C)C(=O)CC[C@]2(C)C3=C(CC[C@@H]12)[C@@]1(C)CC[C@@H]([C@H](CCC(=O)O)C(=O)OCc2ccccc2)[C@]1(C)CC3	3.68
CC1(C)C(=O)CC[C@]2(C)C3=C(C(=O)C[C@@H]12)[C@@]1(C)CC[C@@H]([C@H](CCC(=O)O)C(=O)OCc2ccccc2)[C@]1(C)CC3	> 40
CC1(C)C(=O)CC[C@]2(C)C3=C(CC[C@@H]12)[C@@]1(C)CC[C@@H]([C@H](CCC(=O)N2CCNCC2)C(=O)OCc2ccccc2)[C@]1(C)CC3	> 40
CN1CCN(C(=O)CC[C@H](C(=O)OCc2ccccc2)[C@@H]2CC[C@]3(C)C4=C(CC[C@@]23C)[C@@]2(C)CCC(=O)C(C)(C)[C@@H]2CC4)CC1	31.5
CN(C)C(=O)CC[C@H](C(=O)OCc1ccccc1)[C@@H]1CC[C@]2(C)C3=C(CC[C@@]12C)[C@@]1(C)CCC(=O)C(C)(C)[C@@H]1CC3	0.83
COC(=O)CC[C@H](C(=O)OCc1ccccc1)[C@@H]1CC[C@]2(C)C3=C(CC[C@@]12C)[C@@]1(C)CCC(=O)C(C)(C)[C@@H]1CC3	> 40
CC(C)=CCC[C@H](C(=O)OCc1ccccc1)[C@@H]1CC[C@]2(C)C3=C(CC[C@@]12C)[C@@]1(C)C/C(=C\C(=O)O)C(=O)C(C)(C)[C@@H]1CC3	0.57
CC(C)=CCC[C@H](C(=O)OCc1ccccc1)[C@@H]1CC[C@]2(C)C3=C(CC[C@@]12C)[C@@]1(C)C/C(=C\C(=O)N2CCNCC2)C(=O)C(C)(C)[C@@H]1CC3	> 40
CC(C)=CCC[C@H](C(=O)OCc1ccccc1)[C@@H]1CC[C@]2(C)C3=C(CC[C@@]12C)[C@@]1(C)C/C(=C\C(=O)N2CCN(C)CC2)C(=O)C(C)(C)[C@@H]1CC3	32.3
CC1(C)C(=O)CC[C@]2(C)C3=C(CC[C@@H]12)[C@@]1(C)CC[C@@H]([C@H](CCC(N)=O)C(=O)OCc2ccccc2)[C@]1(C)CC3	> 40
CC1(C)C(=O)CC[C@]2(C)C3=C(CC[C@@H]12)[C@@]1(C)CC[C@@H]([C@H](CCC#N)C(=O)OCc2ccccc2)[C@]1(C)CC3	14.1
CC1(C)C(=O)CC[C@]2(C)C3=C(CC[C@@H]12)[C@@]1(C)CC[C@@H]([C@H](CCc2nnn[nH]2)C(=O)OCc2ccccc2)[C@]1(C)CC3	2.6
CC(C)=CCC[C@H](C(=O)O)[C@@H]1CC[C@]2(C)C3=C(CC[C@@]12C)[C@@]1(C)CCC(=O)C(C)(C)[C@@H]1CC3	13.2
